Source: patent US7528226B2, “TGFβ1-inhibitor peptides” (Rojecto de Biomedicina Cima S.L., priority 1998, dated 2009)
No end group written: not given here.

Legend:
[1] = system: type I, II and III cell receptors of TGFβ1; assay: Affinity labelling: inhibition of binding of 125I-TGFβ1 to its cell receptors on MV-1-Lu cells; set-up: species or system human
Protocol: The MV-1-Lu cells were removed from the culture flasks incubating them at 37° C. for 10 minutes, with 10 ml of solution 1 (128 mM NaCl, 5 mM KCl, 25 mM 4-(2-hydroxyethyl)-1-piperazine ethanesulphonate at pH 7.5, 5 mM glucose and 1 mM EDTA). The cells thus removed were resuspended in solution 2 (128 Mm NaCl, 5 mM KCl, 50 mM 4-(2-hydroxyethyl)-1-piperazine ethanesulphonate at pH 7.5, 1.2 mM CaCl2, 1.2 mM MgSO4 and 5 mg/ml BSA) and were collected by centrifugation at 1000×g for 5 minutes. After centrifugation the cells were resuspended in solution 2 at a concentration of 10^6 cells/ml.
From this cell suspension, 0.5 ml aliquots were made in 24-well plates (Greiner GmbH, Frickenhausen, Germany), the peptides were added, in 50 μl of a 0.8 mg/ml solution, then this was incubated for 2 hours at 4° C. with stirring. Next, ^125I-TGFβ1 (2 μCi) was added to a final concentration of 277.2 pM (^125I-TGFβ1 human recombinant 800-2200 Ci/mmol, Amersham Life Science, Buckinghamshire, UK) and this was incubated for a further two hours at 4° C. with stirring.
After incubation, the cells were transferred to a centrifuge tube and were centrifuged cold at 12,000×g for 1 minute. […]

[2] = system: experimental cirrhosis with CCl4; assay: Model of experimental cirrhosis induced with CCl4 in Wistar rats (collagen / fibrosis); assay type: in vivo, rat
Protocol: Male white rats (albino Wistar strain) from simultaneous litters (5 weeks±1.5 weeks) were used, in order to obtain a group that was homogeneous in age and initial weight. Throughout the experiments, the animals were kept in conditions of constant temperature (22° C.) with a 12-hour cycle of light and darkness. They had free access to water and food.
Hepatic cirrhosis (HC) was induced by inhalation of carbon tetrachloride for 11 weeks, twice per week (López Novoa J M et al. (1976) Patologia IX:223-240; Camps J. et al. (1987) Gastroenterology 93:498-505). Exposure to CCl4 was effected by bubbling compressed air, at a flow rate of 3 liters/min, through a gas wash-bottle. […] CCl4 was not administered during the fifth week, starting again at the sixth week with an exposure of 5 minutes. This exposure time was maintained until week 11. 400 mg/l of phenobarbital (Luminal®, Bayer, Leverkusen, Germany) was added to the drinking water, from one week before starting exposure to CCl4 and until the end of the experimental period. Before starting the treatment, one week was left, in which they were not administered CCl4. During treatment they were administered a weekly dose of CCl4, as recorded (FIG. 2).
The animals were divided into 4 groups before beginning the process of induction of hepatic cirrhosis. • Healthy controls (Co): Animals that were not subjected to the fibrosis process. • Treated healthy controls (Co+P144): Animals that were not subjected to the fibrosis process and that were administered the peptide P144 during the last 3 weeks (coinciding in time with the treatment of the group of rats Tto2). • Cirrhotic controls 1 (Ci1): Animals subjected to the process of induction of cirrhosis by inhalation of CCl4 twice per week. These animals were separated into 2 groups on reaching the fifth week: • Cirrhotic controls 1 (Ci1): Animals that continued to be subjected to the process of induction of fibrosis up to week 11, without being administered the peptide P144. They were administered saline serum on alternate days, throughout the induction process (weeks 5 to 11). • Treated cirrhotics 1 (Tto1): Animals that were administered the peptide P144 derived from the sequence of the type III receptor, on alternate days, during the process of induction of fibrosis, from week 5 to week 11. • Cirrhotic controls 2 (Ci2): Animals that continued to be subjected to the process of induction of fibrosis without receiving the peptide P144 or saline serum. This group was subdivided into another two on reaching week 11. • Cirrhotic controls 2 (Ci2): Cirrhotic animals that were not subjected to any type of treatment, kept as controls. […]

TSLDASIIWAMMQN [P144, ThrSerLeuAspAlaSerIleIleTrpAlaMetMetGlnAsn]
inhibition of the binding of 125I-TGFβ1 to the cell receptors ([1]; preincubation with peptide at 10^6 times the molar concentration of 125I-TGFβ1): inhibition of the binding | concentration at which the peptide lost its activity ([1]; titration of the peptide, affinity labelling): 2×10^5 times the molar concentration of ^125I-TGFβ1 | ratio of collagen to total protein, treated (Tto1) vs cirrhotic controls (Ci1) ([2]; protocol 1: 70 μg/animal on alternate days during cirrhosis induction, Fast Green/Direct Red, spectrophotometer): significant differences are observed (P<0.05) | area of fibrosis, treated (Tto1) vs cirrhotic controls (Ci1) ([2]; protocol 1: 70 μg/animal on alternate days during cirrhosis induction, image analysis, Sirius Red): also significant (P<0.001) | ratio of collagen to total protein, treated (Tto2) vs cirrhotic controls (Ci2) ([2]; protocol 2: 70 μg/animal on alternate days for 3 weeks once cirrhosis was established): not significant | area of fibrosis, treated (Tto2) vs cirrhotic controls (Ci2) ([2]; protocol 2: 70 μg/animal on alternate days for 3 weeks once cirrhosis was established, image analysis): not significant
